# Assay results from ChEMBL document CHEMBL1145284, “Combined target-based and ligand-based drug design approach as a tool to define a novel 3D-pharmacophore model of human A3 adenosine receptor antagonists: pyrazolo[4,3-e]1,2,4-triazolo[1,5-c]pyrimidine derivatives as a key study” (J Med Chem, 2005).
# Molecular target: T1, Adenosine receptor A3 (Homo sapiens, UniProt P0DMS8)
# T1 sequence (P0DMS8 whole entry): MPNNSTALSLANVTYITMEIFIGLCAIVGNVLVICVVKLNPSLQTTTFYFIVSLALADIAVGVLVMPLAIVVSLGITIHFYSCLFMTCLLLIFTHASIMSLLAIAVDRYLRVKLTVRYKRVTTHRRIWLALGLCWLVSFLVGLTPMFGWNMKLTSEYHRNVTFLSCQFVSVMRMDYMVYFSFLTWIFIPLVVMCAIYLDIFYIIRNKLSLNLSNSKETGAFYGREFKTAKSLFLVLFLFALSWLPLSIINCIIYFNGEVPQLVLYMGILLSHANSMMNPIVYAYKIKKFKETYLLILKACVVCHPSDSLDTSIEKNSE
# Description: Binding affinity for human adenosine A3 receptor
row,SMILES,Ki
1,CC(C)=CCn1cc2c(nc(N)n3nc(-c4ccco4)nc23)n1,811 nM
2,CC(C)CCn1cc2c(nc(NC(=O)NC(C)(C)C)n3nc(-c4ccco4)nc23)n1,39 nM
3,NCC(=O)Nc1nc2nn(CCc3ccccc3)cc2c2nc(-c3ccco3)nn12,163 nM
4,CC(C)CCn1cc2c(nc(NC(=O)CCCN)n3nc(-c4ccco4)nc23)n1,90 nM
5,CC(C)(C)NC(=O)Nc1nc2nn(CCCc3ccccc3)cc2c2nc(-c3ccco3)nn12,65 nM
6,Nc1nc2nn(CC3CCCCC3)cc2c2nc(-c3ccco3)nn12,1720 nM
7,CC(C)CCn1cc2c(nc(NC(=O)NC(C)C)n3nc(-c4ccco4)nc23)n1,65 nM
8,CCCCCCCCn1cc2c(nc(NC(=O)NC3CCCCC3)n3nc(-c4ccco4)nc23)n1,16.3 nM
9,CCCn1cc2c(nc(NC(=O)NC(C)(C)C)n3nc(-c4ccco4)nc23)n1,15 nM
10,CC(C)(C)OC(=O)NCCCC(=O)Nc1nc2nn(CCc3ccccc3)cc2c2nc(-c3ccco3)nn12,1480 nM
11,CCCCCCCCn1cc2c(nc(N)n3nc(-c4ccco4)nc23)n1,2050 nM
12,CC(C)CCn1cc2c(nc(NC(=O)NC3CCCCC3)n3nc(-c4ccco4)nc23)n1,20.5 nM
13,NCCCC(=O)Nc1nc2nn(CCc3ccccc3)cc2c2nc(-c3ccco3)nn12,65 nM
14,NCCC(=O)Nc1nc2nn(CCc3ccccc3)cc2c2nc(-c3ccco3)nn12,80 nM
15,CC(C)NC(=O)Nc1nc2nn(CCCc3ccccc3)cc2c2nc(-c3ccco3)nn12,55 nM
16,CC(C)CCn1cc2c(nc(NC(=O)CCCNC(=O)OC(C)(C)C)n3nc(-c4ccco4)nc23)n1,2490 nM
17,CCCn1cc2c(nc(NC(=O)NC(C)C)n3nc(-c4ccco4)nc23)n1,21 nM

# The next compounds have a lower Ki than those just listed; values first:
row,Ki,SMILES
1,4.48 nM,CCCCCCCCn1cc2c(nc(NC(=O)Nc3ccc(C)cc3)n3nc(-c4ccco4)nc23)n1
2,4.9 nM,CC(C)(C)NC(=O)Nc1nc2nn(CCc3ccccc3)cc2c2nc(-c3ccco3)nn12
3,7.41 nM,Cc1ccc(NC(=O)Nc2nc3nn(CCC(C)C)cc3c3nc(-c4ccco4)nn23)cc1
4,0.82 nM,CCOC(=O)Cc1ccc(NC(=O)Nc2nc3nn(C)cc3c3nc(-c4ccco4)nn23)cc1
5,6.7 nM,O=C(Nc1nc2nn(CC3CCCCC3)cc2c2nc(-c3ccco3)nn12)NC1CCCCC1
6,7.83 nM,CCCCCCCCn1cc2c(nc(NC(=O)NCCCCC)n3nc(-c4ccco4)nc23)n1
7,9.97 nM,CCCCCCCCn1cc2c(nc(NC(=O)Nc3ccc(CC(=O)OCC)cc3)n3nc(-c4ccco4)nc23)n1
8,3.98 nM,CCCCCNC(=O)Nc1nc2nn(CC3CCCCC3)cc2c2nc(-c3ccco3)nn12
9,6.95 nM,CCOC(=O)Cc1ccc(NC(=O)Nc2nc3nn(CC4CCCCC4)cc3c3nc(-c4ccco4)nn23)cc1
10,5.94 nM,Cc1ccc(NC(=O)Nc2nc3nn(CC4CCCCC4)cc3c3nc(-c4ccco4)nn23)cc1
11,9 nM,CC(C)NC(=O)Nc1nc2nn(CCc3ccccc3)cc2c2nc(-c3ccco3)nn12
12,1.95 nM,CCCCCNC(=O)Nc1nc2nn(C)cc2c2nc(-c3ccco3)nn12
13,8.09 nM,CCCCCNC(=O)Nc1nc2nn(CCC(C)C)cc2c2nc(-c3ccco3)nn12
14,11.9 nM,CCOC(=O)Cc1ccc(NC(=O)Nc2nc3nn(CCC(C)C)cc3c3nc(-c4ccco4)nn23)cc1
